Measured values taken from patent US11384099B2, “Pyrazolopyridinone compounds” (Janssen Pharmaceutica NV, priority 2017, dated 2022).

Columns and labels:
[1] = tested on: NIH/3T3 cells transfected with control vector (MOCK); assay: NIH/3T3 mock cell proliferation assay (CTG, counter assay); type: cell-based; conditions: Mus musculus, NIH3T3; 72-hr incubation, CellTiter Glo; counter assay for general toxicity
Method: NIH/3T3 Mock Cell Proliferation Assay
In day 1, 90 μL of cell suspension (NIH/3T3 cells transfected with the same control vector as in the above two proliferation assays) (total 30,000 cells per well in growth medium (DMEM containing 1% Glutamax, 10% FBS and 1% Pen/Strep)) was seeded in a 96-well plate and then incubated overnight at 37° C. and 5% CO2. In day 2, 10 μL of growth medium containing 10-fold stock solution of testing compound was added into cell cultures (9 dose points with 3× serial dilution, starting with 30 μM, 0.3% DMSO final). After 72-hr incubation at 37° C. and 5% CO2, in day 5 a volume of 50 μL CellTiter Glo (CTG) reagent was added into cell-containing 96-well plate and the plate was incubated at room temperature for 10 minutes before RLUs (relative light unit) were measured on a microplate reader with luminescence detection module. The RLU value was normalized to survival % and concentration-response curve was plotted using Prism to calculate IC50 (M), pIC50 (−log IC50) and HillSlope value.

[2] = biological target: T1, human FGFR3 wild type enzyme (cytoplasmic domain) (Homo sapiens, UniProt P22607); assay: FGFR3 wild type mobility shift assay (enzymatic assay, Caliper); type: biochemical; conditions: 75 μM ATP, 50 minutes at 30° C.
T1 construct: human FGFR3 wild type enzyme (cytoplasmic domain, from Cama Biosciences); purchased Carna Biosciences
T1 sequence (P22607 397-806 limits assumed): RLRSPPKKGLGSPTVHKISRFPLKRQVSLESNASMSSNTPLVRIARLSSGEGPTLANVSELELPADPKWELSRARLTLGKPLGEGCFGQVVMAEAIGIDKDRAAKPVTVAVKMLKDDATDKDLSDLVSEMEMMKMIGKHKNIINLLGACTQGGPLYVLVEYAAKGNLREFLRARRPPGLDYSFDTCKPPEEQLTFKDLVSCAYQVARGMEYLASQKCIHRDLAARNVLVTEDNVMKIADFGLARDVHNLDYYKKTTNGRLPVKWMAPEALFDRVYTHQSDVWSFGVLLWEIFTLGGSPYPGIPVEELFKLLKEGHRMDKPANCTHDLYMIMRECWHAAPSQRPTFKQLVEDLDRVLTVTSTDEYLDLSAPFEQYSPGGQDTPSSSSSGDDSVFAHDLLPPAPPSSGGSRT
Method: FGFR3 Wild Type Mobility Shift Assay (Enzymatic Assay)
(§1) In a final reaction volume of 25 μL, 0.04 ng/μL human FGFR3 wild type enzyme (cytoplasmic domain, from Cama Biosciences) was incubated with 75 μM ATP, 1 μM FL-peptide 30 substrate and 250 nL of testing compound (1% DMSO final) in assay buffer (100 mM HEPES pH 7.4, 10 mM MgCl2, 0.003% Brij35, 1 mM DTT). After incubation for 50 minutes at 30° C. the reaction was stopped with 10 μL of 0.5M EDTA pH 8.0, and then L of reaction mixture was transferred to reading plate and measured on Caliper EZ reader II.

[3] = biological target: T2, human FGFR3 V555M enzyme (cytoplasmic domain carrying V555M mutation) (Homo sapiens, UniProt P22607, V555M); assay: FGFR3 V555M mobility shift assay (enzymatic assay, Caliper); type: biochemical; conditions: 30 μM ATP, 45 minutes at 30° C.
T2 construct: cytoplasmic domain carrying V555M mutation, from Carna Biosciences; purchased Carna Biosciences
T2 sequence (P22607 397-806 V555M limits assumed): as the sequence (P22607 397-806 limits assumed) above, with V159M counted along it
Method: FGFR3 V555M Mobility Shift Assay (Enzymatic Assay)
as §1, with “FGFR3 V555M” for “FGFR3 wild type”, “(cytoplasmic domain carrying V555M mutation,” for “(cytoplasmic domain,”, “from Carna” for “from Cama”, “with 30” for “with 75”, “for 45” for “for 50”

| Structure (SMILES) | IC50 [1] [nM] | IC50 [2] [nM] | IC50 [3] [nM] |
| --- | --- | --- | --- |
| CC(C)[C@H](Nc1c(-c2nc3ccc(C(=O)N(C)C)cc3[nH]2)c(=O)[nH]c2cn(C)nc12)c1ncccn1 (single isomer, unassigned) [Compound 10, (S*)—N,N-dimethyl-2-(2-methyl-7-((2-methyl-1-(pyrimidin-2-yl)propyl)amino)-5-oxo-4,5-dihydro-2H-pyrazolo[4,3-b]pyridin-6-yl)-1H-benzo[d]imidazole-6-carboxamide] | 1370 | – | – |
| CCC(Nc1c(-c2nc3ccc(OCCOC)cc3[nH]2)c(=O)[nH]c2cn(C)nc12)c1ncccn1 (single isomer, unassigned) [Compound 49, (R*)-6-(6-(2-methoxyethoxy)-1H-benzo[d]imidazol-2-yl)-2-methyl-7-((1-(pyrimidin-2-yl)propyl)amino)-2H-pyrazolo[4,3-b]pyridin-5 (4H)-one] | – | 150 | 59.5 |
| CCn1cc2[nH]c(=O)c(-c3nc4ccc(OC)cc4[nH]3)c(N[C@@H](C)c3cocn3)c2n1 (single isomer, unassigned) [Compound 33, (S*)-2-ethyl-6-(6-methoxy-1H-benzo[d]imidazol-2-yl)-7-((1-(oxazol-4-yl)ethyl)amino)-2H-pyrazolo[4,3-b]125yridine-5 (4H)-one] | – | 23.7 | 4.16 |
| CC(C)[C@H](Nc1c(-c2nc3cnc(N(C)C)cc3[nH]2)c(=O)[nH]c2cn(C)nc12)c1ncccn1 (single isomer, unassigned) [Compound 11, (S*)-6-(6-(dimethylamino)-1H-imidazo[4,5-c]pyridin-2-yl)-2-methyl-7-((2-methyl-1-(pyrimidin-2-yl)propyl)amino)-2H-pyrazolo[4,3-b]pyridin-5 (4H)-one] | 1840 | – | – |
| CC(C)C(Nc1c(-c2nc3cnccc3[nH]2)c(=O)[nH]c2cn(C)nc12)c1ncccn1 (single isomer, unassigned) [Compound 24, (S*)-6-(1H-imidazo[4,5-c]pyridin-2-yl)-2-methyl-7-((2-methyl-1-(pyrimidin-2-yl)propyl)-amino)-2H-pyrazolo[4,3-b]pyridin-5 (4H)-one] | 3010 | – | – |
| COc1cc2nc(-c3c(NC(c4ncccn4)C4CC4)c4nn(C)cc4[nH]c3=O)[nH]c2cc1OC (single isomer, unassigned) [Compound 47, (R*)-7-((cyclopropyl(pyrimidin-2-yl)methyl)amino)-6-(5,6-dimethoxy-1H-benzo[d]-imidazol-2-yl)-2-methyl-2H-pyrazolo[4,3-b]pyridin-5 (4H)-one] | – | 99.6 | 23.8 |
| COCC(Nc1c(-c2nc3cnc(OC)cc3[nH]2)c(=O)[nH]c2cn(C)nc12)c1ncccn1 (single isomer, unassigned) [Compound 20, (R*)-7-((2-methoxy-1-(pyrimidin-2-yl)ethyl)amino)-6-(6-methoxy-1H-imidazo[4,5-c]-pyridin-2-yl)-2-methyl-2H-pyrazolo[4,3-b]pyridin-5 (4H)-one] | – | 22.4 | 4.67 |
| CCn1cc2[nH]c(=O)c(-c3nc4cc(OC)c(OC)cc4[nH]3)c(N[C@@H](C)c3ncccn3)c2n1 [Compound 37, (S)-6-(5,6-dimethoxy-1H-benzo[d]imidazol-2-yl)-2-ethyl-7-((1-(pyrimidin-2-yl)ethyl)-amino)-2H-pyrazolo[4,3-b]pyridin-5 (4H)-one] | – | 1.83 | 0.673 |
| COc1cc2nc(-c3c(N[C@H](c4ncccn4)C(C)C)c4nn(C)cc4[nH]c3=O)[nH]c2cc1OC (single isomer, unassigned) [Compound 27, (S*)-6-(5,6-dimethoxy-H-benzo[d]imidazol-2-yl)-2-methyl-7-((2-methyl-1-(pyrimidin-2-yl)propyl)amino)-2H-pyrazolo[4,3-b]pyridin-5 (4H)-one] | 722 | – | – |
| COc1cnc2nc(-c3c(NC(c4ncccn4)C(C)C)c4nn(C)cc4[nH]c3=O)[nH]c2c1 (single isomer, unassigned) [Compound 39, (R*)-6-(6-methoxy-1H-imidazo[4,5-b]pyridin-2-yl)-2-methyl-7-((2-methyl-1-(pyrimidin-2-yl)propyl)amino)-2,4-dihydro-5H-pyrazolo[4,3-b]pyridin-5-one] | – | 263 | 48.6 |
| COCC(Nc1c(-c2nc3ccc(OC)cc3[nH]2)c(=O)[nH]c2cn(C)nc12)c1ncccn1 (single isomer, unassigned) [Compound 13, (R*)-7-((2-methoxy-1-(pyrimidin-2-yl)ethyl)amino)-6-(6-methoxy-1H-benzo[d]imidazol-2-yl)-2-methyl-2H-pyrazolo[4,3-b]pyridin-5 (4H)-one] | – | 1830 | 375 |
| CCC(Nc1c(-c2nc3cc(OC)c(OC)cc3[nH]2)c(=O)[nH]c2cn(C)nc12)c1ncccn1 (single isomer, unassigned) [Compound 43, (R*)-6-(5,6-dimethoxy-1H-benzo[d]imidazol-2-yl)-2-methyl-7-((1-(pyrimidin-2-yl)-propyl)amino)-2H-pyrazolo[4,3-b]pyridin-5 (4H)-one] | – | 138 | 43.2 |
| COCCOc1cc2[nH]c(-c3c(NC(c4ncccn4)C(C)C)c4nn(C)cc4[nH]c3=O)nc2cc1OC (single isomer, unassigned) [Compound 35, (R*)-6-(5-methoxy-6-(2-methoxyethoxy)-1H-benzo[d]imidazol-2-yl)-2-methyl-7-((2-methyl-1-(pyrimidin-2-yl)propyl)amino)-2H-pyrazolo[4,3-b]pyridin-5 (4H)-one] | – | 298 | 80.5 |
| CC(C)[C@H](Nc1c(-c2nc3ccc(C(N)=O)cc3[nH]2)c(=O)[nH]c2cn(C)nc12)c1ncccn1 (single isomer, unassigned) [Compound 9, (S*)-2-(2-methyl-7-((2-methyl-1-(pyrimidin-2-yl)propyl)amino)-5-oxo-4,5-dihydro-2H-pyrazolo[4,3-b]pyridin-6-yl)-1H-benzo[d]imidazole-6-carboxamide] | 2700 | – | – |
| CC[C@@H](Nc1c(-c2nc3cnc(N(C)C)cc3[nH]2)c(=O)[nH]c2cn(C)nc12)c1ncccn1 [Compound 21, (R)-6-(6-(dimethylamino)-1H-imidazo[4,5-c]pyridin-2-yl)-2-methyl-7-((1-(pyrimidin-2-yl)propyl)amino)-2H-pyrazolo[4,3-b]pyridin-5 (4H)-one] | – | 1240 | 347 |
| COC[C@@H](Nc1c(-c2nc3cc(OC)c(OC)cc3[nH]2)c(=O)[nH]c2cn(C)nc12)c1ncccn1 (single isomer, unassigned) [Compound 25, (S*)-6-(5,6-dimethoxy-H-benzo[d]imidazol-2-yl)-7-((2-methoxy-1-(pyrimidin-2-yl)-ethyl)amino)-2-methyl-2H-pyrazolo[4,3-b]pyridin-5 (4H)-one] | 4550 | – | – |
| CCn1cc2[nH]c(=O)c(-c3nc4cc(OC)c(OC)cc4[nH]3)c(N[C@@H](C)c3cocn3)c2n1 (single isomer, unassigned) [Compound 5A, (S*)-6-(5,6-Dimethoxy-H-benzo[d]imidazol-2-yl)-2-ethyl-7-((1-(oxazol-4-yl)ethyl)-amino)-2H-pyrazolo[4,3-b]pyridin-5 (4H)-one] | 380 | – | – |
| CCC(Nc1c(-c2nc3cnc(N(C)C)cc3[nH]2)c(=O)[nH]c2cn(C)nc12)c1ncccn1 (single isomer, unassigned) [Compound 14, (S*)-6-(6-(dimethylamino)-1H-imidazo[4,5-c]pyridin-2-yl)-2-methyl-7-((1-(pyrimidin-2-yl)propyl)amino)-2H-pyrazolo[4,3-b]pyridin-5 (4H)-one] | – | 71.9 | 11.8 |
| COCC(Nc1c(-c2nc3cnc(OC)cc3[nH]2)c(=O)[nH]c2cn(C)nc12)c1ncccn1 (single isomer, unassigned) [Compound 19, (S*)-7-((2-methoxy-1-(pyrimidin-2-yl)ethyl)amino)-6-(6-methoxy-1H-imidazo[4,5-c]-pyridin-2-yl)-2-methyl-2H-pyrazolo[4,3-b]pyridin-5 (4H)-one] | – | 1240 | 243 |
| COCC(Nc1c(-c2nc3cc(OC)c(OC)cc3[nH]2)c(=O)[nH]c2cn(C)nc12)c1ncccn1 (single isomer, unassigned) [Compound 26, (R*)-6-(5,6-dimethoxy-1H-benzo[d]imidazol-2-yl)-7-((2-methoxy-1-(pyrimidin-2-yl)-ethyl)amino)-2-methyl-2H-pyrazolo[4,3-b]pyridin-5 (4H)-one] | – | 790 | 218 |
